In patent US7880007B2, “Bicyclic substituted phenyl piperidine modulators of muscarinic receptors” (Vertex Pharmaceuticals Incorporated, priority 2004, dated 2011):

Tests used:
Format in all cases: cell-based
M4 muscarinic receptor = target: T1, M4 muscarinic receptor (Homo sapiens, UniProt P08173); experiment: Functional mobilization of intracellular calcium (FLIPR), M4-CHO cells; conditions: for Emax: 100% efficacy = maximum response obtained with the Carbachol control; for M4 Activity: M4-CHO cells, calcium mobilization (FLIPR)
T1 construct: expressed in transfected cells; host or cells: CHO (M4-CHO)
T1 sequence (P08173 1-479): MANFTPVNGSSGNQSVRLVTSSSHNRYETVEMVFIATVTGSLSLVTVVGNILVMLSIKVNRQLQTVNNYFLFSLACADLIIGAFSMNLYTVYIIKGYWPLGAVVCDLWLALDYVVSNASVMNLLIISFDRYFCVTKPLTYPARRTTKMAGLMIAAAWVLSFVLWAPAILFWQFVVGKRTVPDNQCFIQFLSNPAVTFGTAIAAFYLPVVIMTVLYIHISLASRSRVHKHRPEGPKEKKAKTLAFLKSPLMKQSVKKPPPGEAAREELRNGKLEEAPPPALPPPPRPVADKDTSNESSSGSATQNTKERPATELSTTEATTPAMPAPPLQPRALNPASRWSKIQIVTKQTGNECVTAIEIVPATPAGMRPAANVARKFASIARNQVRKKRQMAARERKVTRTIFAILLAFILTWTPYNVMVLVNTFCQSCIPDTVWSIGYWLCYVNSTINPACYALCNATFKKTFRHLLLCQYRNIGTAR
Procedure, shortened: (§1)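 FLIPR fluorescence (ex 488, em 540 nm) recorded 60 sec after compound addition to dye-loaded CHO cells. Agonist mode: compound alone. Antagonist mode: 15 min compound pre-incubation, then carbachol at EC80, or co-application. Efficacy expressed as % of maximal carbachol response.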

M2 muscarinic receptor = target: T2, M2 muscarinic receptor (Homo sapiens, UniProt P08172); experiment: Functional mobilization of intracellular calcium (FLIPR), M2-CHO cells; conditions: for Emax: 100% efficacy = maximum response obtained with the Carbachol control; for M2 Activity: M2-CHO cells, calcium mobilization (FLIPR)
T2 construct: expressed in transfected cells; host or cells: CHO (M2-CHO)
T2 sequence (P08172 1-466): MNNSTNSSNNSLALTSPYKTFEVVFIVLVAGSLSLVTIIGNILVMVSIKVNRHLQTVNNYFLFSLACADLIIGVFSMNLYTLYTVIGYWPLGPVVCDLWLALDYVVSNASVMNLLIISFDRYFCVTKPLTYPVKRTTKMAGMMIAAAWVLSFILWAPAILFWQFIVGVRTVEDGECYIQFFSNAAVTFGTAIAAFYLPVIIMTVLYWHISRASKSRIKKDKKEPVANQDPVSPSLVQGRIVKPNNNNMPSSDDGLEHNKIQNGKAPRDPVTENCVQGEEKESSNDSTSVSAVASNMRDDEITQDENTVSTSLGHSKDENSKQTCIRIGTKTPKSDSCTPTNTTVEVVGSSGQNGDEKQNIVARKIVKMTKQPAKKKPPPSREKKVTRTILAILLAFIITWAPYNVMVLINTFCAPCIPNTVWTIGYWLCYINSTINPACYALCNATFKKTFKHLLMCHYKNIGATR
Procedure, shortened: as §1

M3 muscarinic receptor = target: T3, M3 muscarinic receptor (Homo sapiens, UniProt P20309); experiment: Functional mobilization of intracellular calcium (FLIPR), M3-CHO cells; conditions: for Emax: 100% efficacy = maximum response obtained with the Carbachol control; for M3 Activity: M3-CHO cells, calcium mobilization (FLIPR)
T3 construct: expressed in transfected cells; host or cells: CHO (M3-CHO)
T3 sequence (P20309 whole entry): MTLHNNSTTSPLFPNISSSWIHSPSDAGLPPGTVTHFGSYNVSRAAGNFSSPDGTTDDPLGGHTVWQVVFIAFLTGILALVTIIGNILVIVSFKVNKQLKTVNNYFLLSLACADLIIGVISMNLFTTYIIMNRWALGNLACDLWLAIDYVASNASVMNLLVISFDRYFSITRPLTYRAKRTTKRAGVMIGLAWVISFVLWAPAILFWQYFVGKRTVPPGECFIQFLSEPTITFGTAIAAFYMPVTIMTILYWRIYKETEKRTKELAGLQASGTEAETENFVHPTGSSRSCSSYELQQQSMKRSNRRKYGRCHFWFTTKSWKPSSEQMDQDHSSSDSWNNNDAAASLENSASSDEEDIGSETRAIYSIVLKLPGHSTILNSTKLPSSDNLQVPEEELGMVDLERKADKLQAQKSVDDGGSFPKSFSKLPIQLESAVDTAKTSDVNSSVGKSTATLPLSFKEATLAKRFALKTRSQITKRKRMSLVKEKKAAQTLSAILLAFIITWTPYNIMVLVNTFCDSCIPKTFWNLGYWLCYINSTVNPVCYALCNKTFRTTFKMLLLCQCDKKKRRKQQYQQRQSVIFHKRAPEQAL
Procedure, shortened: as §1

M1 muscarinic receptor = target: T4, M1 muscarinic receptor (Homo sapiens, UniProt P11229); experiment: Functional mobilization of intracellular calcium (FLIPR), M1-CHO cells; conditions: for Emax: 100% efficacy = maximum response obtained with the Carbachol control; for M1 Activity: M1-CHO cells, calcium mobilization (FLIPR)
T4 construct: expressed in transfected cells; host or cells: CHO (M1-CHO)
T4 sequence (P11229 1-460): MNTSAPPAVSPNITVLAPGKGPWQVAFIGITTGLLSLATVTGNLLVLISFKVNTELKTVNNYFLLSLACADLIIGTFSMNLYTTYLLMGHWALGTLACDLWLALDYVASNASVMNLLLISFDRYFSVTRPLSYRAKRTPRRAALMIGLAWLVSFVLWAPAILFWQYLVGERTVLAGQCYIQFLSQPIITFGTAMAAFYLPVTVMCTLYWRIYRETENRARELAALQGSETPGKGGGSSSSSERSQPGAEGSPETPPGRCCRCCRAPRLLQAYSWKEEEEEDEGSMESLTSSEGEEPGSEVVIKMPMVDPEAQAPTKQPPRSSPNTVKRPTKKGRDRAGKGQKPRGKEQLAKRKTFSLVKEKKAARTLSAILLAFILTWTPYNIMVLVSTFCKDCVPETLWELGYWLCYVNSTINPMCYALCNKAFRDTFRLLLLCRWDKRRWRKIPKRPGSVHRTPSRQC
Procedure, shortened: as §1

Row | Compound | Emax (M4 muscarinic receptor) [%] | Emax (M2 muscarinic receptor) [%] | Emax (M3 muscarinic receptor) [%] | Emax (M1 muscarinic receptor) [%] | M4 Activity (M4 muscarinic receptor) | M2 Activity (M2 muscarinic receptor) | M3 Activity (M3 muscarinic receptor) | M1 Activity (M1 muscarinic receptor)
1 | FC(F)(F)Oc1ccccc1C1CCN(C2CCOCC2)CC1 [Compound 70] | 25 to 100 | < 25 | < 25 | 25 to 100 | ++ (activity was measured to be from 1.0 μM to 5.0 μM) | + (activity was measured to be greater than 5.0 μM) | + (activity was measured to be greater than 5.0 μM) | + (activity was measured to be greater than 5.0 μM)
2 | COc1ccc(F)cc1C1(O)CCN(C[C@@H]2C[C@H]3C=C[C@H]2C3)CC1 [Compound 60] | 25 to 100 | < 25 | < 25 | < 25 | ++ (activity was measured to be from 1.0 μM to 5.0 μM) | + (activity was measured to be greater than 5.0 μM) | + (activity was measured to be greater than 5.0 μM) | + (activity was measured to be greater than 5.0 μM)
3 | CCOC(=O)N1C2CCC1CC(N1CCC(c3cc(-c4ccc(S(=O)(=O)N5CCCC5)cc4)ccc3OC)CC1)C2 (stereo not shown) [Compound 215] | < 25 | < 25 | < 25 | 25 to 100 | + (activity was measured to be greater than 5.0 μM) | + (activity was measured to be greater than 5.0 μM) | + (activity was measured to be greater than 5.0 μM) | + (activity was measured to be greater than 5.0 μM)
4 | CCOC(=O)N1C2CCC1CC(N1CCC(c3cc(-c4ccc(C#N)cc4)ccc3OC)CC1)C2 (stereo not shown) [Compound 317] | 25 to 100 | < 25 | < 25 | 25 to 100 | ++ (activity was measured to be from 1.0 μM to 5.0 μM) | + (activity was measured to be greater than 5.0 μM) | + (activity was measured to be greater than 5.0 μM) | ++ (activity was measured to be from 1.0 μM to 5.0 μM)
5 | COc1ccc(-c2cccc(F)c2F)cc1C1CCN([C@@H]2C[C@H]3CC[C@H]2C3)CC1 [Compound 318] | 25 to 100 | < 25 | < 25 | < 25 | + (activity was measured to be greater than 5.0 μM) | + (activity was measured to be greater than 5.0 μM) | + (activity was measured to be greater than 5.0 μM) | + (activity was measured to be greater than 5.0 μM)
6 | CCOC(=O)N1C2CCC1CC(N1CCC(c3cc(F)ccc3OC)CC1)C2 (stereo not shown) [Compound 330] | 25 to 100 | 25 to 100 | < 25 | 25 to 100 | +++ (activity was measured to be less than 1.0 μM) | +++ (activity was measured to be less than 1.0 μM) | + (activity was measured to be greater than 5.0 μM) | +++ (activity was measured to be less than 1.0 μM)
7 | COc1ccc(-c2ccc(S(=O)(=O)C(C)C)cc2)cc1C1CCN([C@H]2C[C@H]3CC[C@H]2C3)CC1 [Compound 214] | 25 to 100 | < 25 | < 25 | 25 to 100 | ++ (activity was measured to be from 1.0 μM to 5.0 μM) | + (activity was measured to be greater than 5.0 μM) | + (activity was measured to be greater than 5.0 μM) | + (activity was measured to be greater than 5.0 μM)
8 | O=C(COc1ccccc1C1CCN([C@H]2C[C@H]3CC[C@H]2C3)CC1)c1ccc(F)cc1 [Compound 12] | 25 to 100 | 25 to 100 | < 25 | < 25 | ++ (activity was measured to be from 1.0 μM to 5.0 μM) | + (activity was measured to be greater than 5.0 μM) | + (activity was measured to be greater than 5.0 μM) | + (activity was measured to be greater than 5.0 μM)
9 | COc1ccc(C#Cc2ccccc2)cc1C1CCN(C2CC3CC[C@H]2C3)CC1 (stereo in doubt) [Compound 64, 1-((1S,2R,4R)-bicyclo[2.2.1]heptan-2-yl)-4-(2-methoxy-5-(phenyl-ethynyl)phenyl)piperidine] | 25 to 100 | 25 to 100 | < 25 | 25 to 100 | ++ (activity was measured to be from 1.0 μM to 5.0 μM) | + (activity was measured to be greater than 5.0 μM) | + (activity was measured to be greater than 5.0 μM) | + (activity was measured to be greater than 5.0 μM)

Now from value to compound, other results behind:

Row | Emax (M4 muscarinic receptor) [%] | Emax (M2 muscarinic receptor) [%] | Emax (M3 muscarinic receptor) [%] | Emax (M1 muscarinic receptor) [%] | Compound | M4 Activity (M4 muscarinic receptor) | M2 Activity (M2 muscarinic receptor) | M3 Activity (M3 muscarinic receptor) | M1 Activity (M1 muscarinic receptor)
10 | 25 to 100 | 25 to 100 | < 25 | 25 to 100 | CCOC(=O)N1CCC(CN2CCC(c3ccccc3OC(F)(F)F)CC2)CC1 [Compound 271] | +++ (activity was measured to be less than 1.0 μM) | ++ (activity was measured to be from 1.0 μM to 5.0 μM) | + (activity was measured to be greater than 5.0 μM) | +++ (activity was measured to be less than 1.0 μM)
11 | 25 to 100 | 25 to 100 | < 25 | 25 to 100 | COc1ccc(Cl)cc1C1CCN(C2CCCCCC2)CC1 [Compound 181] | +++ (activity was measured to be less than 1.0 μM) | ++ (activity was measured to be from 1.0 μM to 5.0 μM) | + (activity was measured to be greater than 5.0 μM) | ++ (activity was measured to be from 1.0 μM to 5.0 μM)
12 | 25 to 100 | < 25 | < 25 | < 25 | CNC(=O)c1ccc(-c2ccc(OC)c(C3CCN(C4CCCCC4)CC3)c2)cc1Cl [Compound 353] | ++ (activity was measured to be from 1.0 μM to 5.0 μM) | + (activity was measured to be greater than 5.0 μM) | + (activity was measured to be greater than 5.0 μM) | + (activity was measured to be greater than 5.0 μM)
13 | 25 to 100 | < 25 | < 25 | 25 to 100 | CCc1ccc(OC)c(C2CCN([C@@H]3C[C@H]4CC[C@H]3C4)CC2)c1 [Compound 260] | +++ (activity was measured to be less than 1.0 μM) | + (activity was measured to be greater than 5.0 μM) | + (activity was measured to be greater than 5.0 μM) | +++ (activity was measured to be less than 1.0 μM)
14 | 25 to 100 | < 25 | < 25 | 25 to 100 | CCOC(=O)N1CCC(CN2CCC(F)(c3cc(F)ccc3OC)CC2)CC1 [Compound 253] | +++ (activity was measured to be less than 1.0 μM) | ++ (activity was measured to be from 1.0 μM to 5.0 μM) | + (activity was measured to be greater than 5.0 μM) | +++ (activity was measured to be less than 1.0 μM)
